Patent US20020183333A1, “Compositions and methods for chemotherapy having reduced nephrotoxicity” (priority 2000, published 2002)
“Also recorded” adds a separate entry of the source.

Legend:
LLC-WRC 256 cells [1] = assay: Antineoplastic efficacy of CP by trypan blue exclusion assay (percentage of non-viable cells); assay type: cell-based, rat; conditions: for effect of the inhibitor on the antineoplastic efficacy of cisplatin: 30 min preincubation with DFO 1 mM, DMSO 5 mM, CM 2 mM or PB 1 mM, then cisplatin 500 μg/ml for 5 hours, FIGS. 2 and 3
Experimental: LLC-WRC 256 cells (Walker rat carcinoma cells) purchased from American Type Culture Collection (ATCC, Rockville, Maryland) were maintained in 75 cm^2 tissue culture flasks containing Medium 199 supplemented with 5% fetal bovine serum (Gibco, Gaithersburg, Md.) in a humidified atmosphere of 95% air-5% CO2 at 37° C. For the experimental study, the cell monolayers were subcultured with 0.25% trypsin into a 12-well tissue culture plate until confluence. The antineoplastic efficacy of CP in LLC-WRC 256 cells was measured by the cell viability determined by the trypan blue exclusion assay. Cells failing to exclude the dye were considered non-viable, and data expressed as the percentage of non-viable cells. Antineoplastic efficacy of CP was examined as previously described (Rawlings and Roberts, 1986, Mutation Research 166(2): 157-168.). The cells were incubated with various concentrations of CP (0-600 μg/ml) at different time points (0-6 h) in HBSS at 37° C. At the end of the incubation, the cell viability was determined. Confluent LLC-WRC 256 cell monolayer was incubated with antineoplastic dose of CP for a period of time necessary to induce consistent antineoplastic activity (CP 500 μg/ml in HBSS for 5 hours at 37° C., based on the. initial observation). The cell monolayers were preincubated with iron chelator, deferoxamine (1 mM) or hydroxyl radical scavenger, dimethyl sulfoxide (5 mM) at 37° C. for 30 minutes, washed twice with HBSS and then followed by the addition of CP. LLC-WRC 256 cell monolayers were preincubated with cimetidine (2 mM) or piperonyl butoxide (1 mM) at 37° C. for 30 min, washed with HBSS twice and then followed by the addition of CP (500 μg/ml for 5 hours at 37° C.)

LLC-WRC 256 cells [2] = assay: Catalytic iron release into the medium, bleomycin assay; assay type: cell-based, rat; conditions: CP 500 μg/ml for 2.5 hours, n=6; control 2.44±0.59
Experimental: Confluent […] 256 cells were washed twice with Chelex-treated HBSS and then incubated with a cytotoxic, dose of CP in Chelex-treated HBSS for a period of time before substantial cell killing occurred (500 μg/ml for 2.5 hours at 37° C., based on the time course study). The catalytic iron released into the medium was measured by the bleomycin assay, as described below. Iron capable of catalyzing free radical reactions (catalytic iron) was measured by the bleomycin assay as utilized in our previous studies (Baliga et al. , 1998, Kidney Int. 53:394-401, and Baliga et al., 1998, Kidney Int. 54:1562-1569). All reagents except for the experimental samples were made up in Chelex-treated pyrogen-free water and shaken with Chelex 100 to remove as much contaminating iron as possible. The reaction mixture contained in order: 0.5 ml of calf thymus DNA (1 mg/ml), 0.05 ml of bleomycin sulfate (1 mg/ml), 0.1 ml MgCl2 (50 mM), 0.1 ml of sample, 0.1 ml of ascorbic acid (8 mM), and either HCl (50 mM) or NaOH (50 mM) to adjust pH in the range of 7.2-7.8. […] The reaction mixture was then heated at 100° C. for 15 minutes, cooled and the resulting chromogen measured using spectrophotometer at A 532 nm. The amount of bleomycin detectable iron in the test sample was calculated from the standard curve and the results expressed as nmol/mg cellular protein recovered from the cell monolayer.

LLC-WRC 256 cells [3] = assay: Hydroxyl radical formation, deoxyribose degradation method; assay type: cell-based, rat; conditions: CP 500 μg/ml for 2.5 hours, n=4; control 0.45±0.03
Experimental: Confluent cell monolayers were washed with HBSS and then incubated with cytotoxic dose of CP in HBSS at 37° C. for a period of time before substantial cell killing occurred (500 μg/ml for 2.5 hours). 2-deoxy-D-ribose at a final concentration of 3 mM was added to the medium just prior to the incubation. At the end of the incubation, the medium was collected for the measurement of hydroxyl radical formation by deoxyribose degradation method as described by Halliwell et al., 1988, Meth. Biochem. Anal 33:59-90. In brief, 0.5 ml of the incubation medium was mixed with 0.5 ml of 1% (w/v). 5 thiobarbituric acid in 50 mM NaOH and 0.5 ml of 2.8% (w/v) aqueous trichloroacetic acid, heated at 100° C. for 15 min, cooled and followed by extraction with 1.5ml n-butanol. The absorbance at 532 nm of the resulting supernatant was then taken, and the hydroxyl radical level was calculated by using the extinction coefficient of 156 mM^−1 cm^−1.

[4] = system: cardiotoxicity induced by doxorubicin; conditions: women with breast cancer; cited from earlier work

CN/C(=N/CCSCc1nc[nH]c1C)NC#N [CM, cimetidine]
effect of the inhibitor on the antineoplastic efficacy of cisplatin (LLC-WRC 256 cells [1]): does not reduce the antineoplastic efficacy of CP; also recorded: do not effect the antineoplastic activity of CP

N.N.[Cl][Pt][Cl] [CP, cisplatin]
time of exposure that results in significant cell death (LLC-WRC 256 cells [1]; CP 500 μg/ml, time course 0-6 hours, FIG. 1B): 5 h | low dose at which significant cell death occurs (LLC-WRC 256 cells [1]; LLC-WRC 256 cells, 4 hour incubation, CP 0-600 μg/ml, FIG. 1A): 50 µg/mL | CP dose required to produce submaximal injury (LLC-WRC 256 cells [1]; LLC-WRC 256 cells, concentration dependent effects, FIG. 1A): 500 µg/mL | catalytic iron release (LLC-WRC 256 cells [2]): 2.78±0.41 nmol/mg protein | generation of hydroxyl radical (LLC-WRC 256 cells [3]): 0.41±0.03 nmol/mg protein

C[S+](C)[O-] [DMSO, dimethyl sulfoxide]
effect of the inhibitor on the antineoplastic efficacy of cisplatin (LLC-WRC 256 cells [1]): CP still functions as an antineoplastic compound; also recorded: does not reduce the antineoplastic efficacy of CP

C[C@@H](CN1CC(=O)NC(=O)C1)N1CC(=O)NC(=O)C1 [dexrazoxane]
effect on frequency and severity of doxorubicin-induced cardiotoxicity [4]: decrease the frequency and severity of cardiotoxicity
